From patent US4442300A, “Therapeutically active compounds” (Aktiebolaget Draco, priority 1980, dated 1984)
Where “and” joins values, the source holds several entries; their conditions need not be identical. Equal entries are not always repeated. Entries after “also recorded” stand apart in the source; their conditions may differ. Where two headings read alike, the source gives them in different places.

Tests used:
[1] = tested on: histamine-induced bronchospasm; experiment: Protecting effect against histamine-induced bronchospasm after oral administration (test C2); type: in vivo, guinea-pigs, Dunkin-Hartley strain; conditions: for ED50: Cavia porcellus, 0.05 h, histamine aerosol, read-out: Dose protecting 50% of the test animals for more than 3 minutes (ED50)
Procedure: Male guinea-pigs, Dunkin-Hartley strain, 150-200 g, were used in the study. The animals were starved for about 15 hours (water ad libitum) before the administration, by a stomach tube, of test compound or vehicle (controls). To establish an adequate time period between administration and histamine exposure, the maximum plasma level of terbutaline produced from the hydrolysis of the given pro-drugs of terbutaline was determined. Thus, blood samples (in pre-experimental series) were collected from guinea-pigs at different times after the administration of the test compound and the plasma level of terbutaline was determined by a massfragmentographic assay. A peak in the plasma terbutaline was noted 50-60 minutes after the administration, and this time was selected as time for start of histamine exposure.
The histamine aerosol was generated by Bird inline nebulizers from a solution containing 0.02% histamine-HCl and 3% glycerole. The protecting effect was estimated from the delay in appeareance of signs of anoxia in drug-treated animals. […] Drug-treated guinea-pigs without any signs of respiratory influence from the histamine during these first 3 minutes were denoted as protected.

[2] = Duration of serum levels of terbutaline after oral administration to unanaesthetized dogs (test A); type: in vivo, dog (Beagle); conditions: p.o., >= 2 ng/ml serum
Procedure: A. Duration of serum levels of terbutaline after administration of compounds of the invention to unanaesthetized dogs
(§1) Five dogs (Beagle, .male., 13-18 kg) have been used repeatedly in the study. Each dog was used at most once a week. Food was withheld from the animals the night before the experiment (water ad libitum). The test compound was solved or suspended in 8 ml of distilled water, and delivered into the back of the mouth by use of a syringe and a short tube. This oral supply was followed by a water rinse of 8 ml.
The blood was collected from the cephalic veins in the forelegs by use of evacuated tubes. The esterase inhibitor diisopropylfluophosphate (DFP) was added, the samples centrifugated (+5°) and the most amount of terbutaline in plasma determined by a massfragmentographic analysis method.
(§2) The amounts of the test substances to be administered were selected so that the level of terbutaline, when administered per se, corresponds to the serum levels obtained and found effective in patients at clinical use, that is a level of terbutaline of at least 2 ng/ml serum for 6 to 8 hours. The doses of the test substances of the invention were selected so that the serum levels of terbutaline obtained would correspond approximately with the serum levels obtained after administration of terbutaline per se.

[3] = tested on: histamine evoked rise of the insufflation pressure; experiment: Duration of bronchospasmolytic activity after local administration via aerosol, histamine-induced bronchoconstriction (test B); type: in vivo, Guinea-pigs, strain Dunkin-Hartley
Procedure: Guinea-pigs, strain Dunkin-Hartley, of either sex, weighing 500-900 g were anaesthetized by i.p. injection and i.v. infusion of pentobarbital. The animals were artifically ventilated with a Braun constant volume respiration pump giving 70 strokes/min and a stroke volume of 0.75 ml/100 g body weight. Intratracheal pressure (insufflation pressure) was measured by use of a T-junction on the tracheal cannula connected to a Statham pressure transducer P23BC. An increase in intratracheal pressure, indicating bronchoconstriction, was elicited by i.v. injection (v. jugularis) of histamine. The constricting agent was injected every 10 minutes by a timer-controlled perfusor in a dose giving about 80% of the maximum contractile response (1-2.10^-8 mol/kg). The bronchospasmolytic drugs to be tested were solved in aq. dest. containing 3% glycerol and nebulized by use of a Bird Inline Nebulizer (air pressure 0.2 MPa; droplet spectrum around 1 micron). The generated aerosol was lead through the respirator and tracheal cannula. Inhalation of drug was going on during periods of 30 min. The resulting bronchodilator effect was calculated from the percentage reduction of the histamine evoked rise of the insufflation pressure.
The concentration of the test substance in the solved composition that when nebulized produced 50% inhibition of the increased tracheal pressure (ED50) was measured. […]

[4] = tested on: isolated auricles from guinea-pig heart; experiment: In vitro test on isolated guinea-pig auricles (test D1); parameters: species or system strain Dunkin Hartley; conditions: for Emax: Cavia porcellus; for any chronotropic or inotropic effect: isolated auricles, in words; for potentiating or inhibiting effect on the chronotropic and inotropic effect of terbutaline: same concentration as terbutaline
Procedure: Male guinea-pigs strain Dunkin Hartley (400-500 g) were used. After bleeding and removal of the heart the auricles were dissected free from the ventricular part and submerged into carbogen aerated Krebs solution of 37°. The frequency and force of the spontaneously beating preparation was recorded by a Grass transducer FTO3. In the polygraph (Grass 7D) the signals from the isometric transducer passed a trigger function from the drive amplifier to the tachograph to record the rate.
The esterase inhibitor eserine was added to a concentration of 1.10^-6 mol/l in the organ bath before the drugs to be tested were added. The intrinsic activity of the test compounds on the heart preparation, that is their effect on heart rate (chronotropic effect) and their effect on the force of the heart beats (inotropic effect), and their possible interaction with terbutaline was studied.

isolated tracheal muscle = experiment: Bronchodilating effect in vitro on isolated guinea-pig trachea (test C1); conditions: for Potentiating or inhibiting effect on the bronchodilating effect of terbutaline: 5 min pretreatment with test compound; for EC50: Cavia porcellus; for blockade of the bronchodilating effect by propranolol: propranolol 3.10^-6 mol/l (concentration given for I and II)
Procedure: The trachea from guinea-pigs was dissected out, cut spirally and transferred to a 10 ml organ bath containing Krebs solution of 37° and aerated with carbogen. The tracheal strip was contracted by pilocarpine (4.10^-6 mol/l) producing a tension of about 1.5 g. Isometric recording was made by use of a transducer FTO3 and a Grass polygraph 7D. Before the administration of the test compound the esterase inhibitor eserin was added to the bath in a concentration of 1.10^-6 mol/l. The concentration of the test substances which produces 50% relaxation (EC50) of the pilocarpine contracted trachea was recorded as well as potentiating or inhibiting influence of the test substances of the invention on the relaxing effect of terbutaline. In this last mentioned test the muscle preparation was pretreated with the test compounds during 5 minutes, before the response of terbutaline was recorded.

heart rate = experiment: In vivo effect of the test compounds on the heart rate in dogs (test D2); parameters: species or system dog (Beagle); conditions: oral; for Slope of line, increase in heart rate vs. logarithm of corresponding serum conc.: terbutaline 0.01-0.1 mg/kg, compound I 0.3-2.7 mg/kg
Procedure: as §1
The blood was collected from the cephalic veins in the forelegs by use of evacuated tubes. The esterase inhibitor diisopropylfluophosphate (DFP) was added, the samples centrifugated (+5°) and the amount of terbutaline in plasma determined by a massfragmentographic analysis method. The serum level of terbutaline indicates the degree of bronchospasmolytic effect of the test compounds, provided terbutaline is solely responsible for the bronchospasmolytic effect. This method does, however, not measure the intrinsic activity of the test compounds.
as §2
The heart rate was determined by a stethoscope (the mean of three determinations during a 5-minute periode) before the administration of drug and before each blood sampling.
The relative effect of the test compounds on the heart rate of the test animals was illustrated by plotting in a diagram the increase in heart rate measured at a certain serum concentration of terbutaline versus the logarithm of the said terbutaline concentration in serum. Only values before and up to the maximal increase in heart rate were used. This method will produce a graph consisting of a substantially straight line. […]

[5] = cited from earlier work; for duration of bronchospasmolytic activity, in words: compared with terbutaline or salbutamol
[6] = read-out: chromotropic effect on isolated auricle (relative values)
[7] = read-out: inotropic effect on isolated auricle (relative values)
[8] = isolated trachea, Table 3, read-out: concentration producing a bronchodilating effect
[9] = pilocarpine contracted trachea (4.10^-6 mol/l), eserin 1.10^-6 mol/l, read-out: Concentration of test substance producing 50% relaxation of trachea (EC50)

Row | Compound | protection against histamine-induced bronchospasm on molar basis relative to terbutaline [1] | ED50 [1] | Emax [4, 6] | Emax [4, 7] | any chronotropic or inotropic effect [4] | potentiating or inhibiting effect on the chronotropic and inotropic effect of terbutaline [4] | Potentiating or inhibiting effect on the bronchodilating effect of terbutaline (isolated tracheal muscle) | EC50 (isolated tracheal muscle; [8]) | EC50 (isolated tracheal muscle; [9]) | concentration range for bronchodilating effect relative to terbutaline (isolated tracheal muscle; isolated trachea) | blockade of the bronchodilating effect by propranolol (isolated tracheal muscle) | Slope of line, increase in heart rate vs. logarithm of corresponding serum conc. (heart rate) | duration of bronchospasmolytic activity, in words [5] | further results
1 | CC(C)(C)NCC(O)c1cc(OC(=O)c2ccc(OC(=O)C(C)(C)C)cc2)cc(OC(=O)c2ccc(OC(=O)C(C)(C)C)cc2)c1 (stereo not drawn) [Compound I] | about equally effective as terbutaline | 1.1 mg/kg and 1.6 µmol/kg | 0% | 0% | none | No potentiating or inhibiting effect | none and No potentiating or inhibiting activity | ~1800 nM | 1800 ± 600 nM | about 9 times higher | not blocked | 0.53 | – | time with clinically useful serum level of terbutaline relative to terbutaline [2]: at least twice as long; time with a serum level of terbutaline of 2 ng/ml or more ([2]; listed as compound I): 16 h; onset of effect [3]: comparable to that produced by terbutaline; duration of bronchospasmolytic effect compared with terbutaline ([3]; at ED50 dose level): about three times longer; increase in heart rate relative to terbutaline (heart rate; dogs): relatively much lower; also recorded: considerably reduced
2 | CC(C)(C)NCC(O)c1cc(O)cc(O)c1 (stereo not drawn) [terbutaline, reference compound] | – | – | 100% | 100% | – | – | – | – | – | – | blocked | 1.04 | – | serum concentration necessary for desired therapeutic activity ([5]; Hornblad et al.): at least 2 ng/ml
3 | Cc1ccc(C(=O)Oc2ccc(C(O)CNC(C)(C)C)cc2OC(=O)c2ccc(C)cc2)cc1 (stereo not drawn) [bitolterol] | – | – | – | – | – | – | – | – | – | – | – | – | comparable with that of salbutamol | –
4 | CC(C)(C)NCC(O)c1cc(OC(=O)c2ccc(OC(=O)C(C)(C)C)cc2)cc(OC(=O)c2ccc(OC(=O)C(C)(C)C)cc2)c1 (stereo not drawn) [test substance of the invention] | – | – | – | – | – | – | – | – | – | – | – | – | – | time with a serum level of terbutaline of 2 ng/ml or more [2]: about 16 hours
5 | CC(C)C(=O)Oc1ccc(C(=O)Oc2cc(OC(=O)c3ccc(OC(=O)C(C)C)cc3)cc(C(O)CNC(C)(C)C)c2)cc1 (stereo not drawn) [II] | about equally effective as terbutaline | 1.1 mg/kg and 1.6 µmol/kg | 0% | 0% | none | No potentiating or inhibiting effect | none and No potentiating or inhibiting activity | ~1800 nM | 1800 ± 600 nM | about 9 times higher | not blocked | – | – | –
6 | CC(C)(C)NCC(O)c1ccc(O)c(CO)c1 (stereo not drawn) [salbutamol] | – | – | – | – | – | – | – | – | – | – | – | – | about equal to the duration of terbutaline | –
